Source: patent EP0012543A1, “Compositions containing 1,3-dioxolanes as emollients” (IMPERIAL CHEMICAL INDUSTRIES PLC, priority 1978, dated 1980)

Tested on: skin
Assay: Evaluation of emollients: test lotion rated by a panel
Type: in vivo, persons
Method: The following basic composition is prepared:
The emollient to be tested is stirred with the other ingredients of the oil phase while heating to 70°C. Meanwhile, ingredients of the water phase are stirred and heated to 72°C. The water phase is then added gradually to the stirred oil phase, and the total mixture is stirred while it cools to room temperature. The emulsion (lotion or cream) is allowed to age for 48 hours at room temperature before evaluation.
For evaluation the subject applies a small amount of the lotion to the inner arm, rubs it into the skin and rates five characteristics: ease of application, moistness, smoothness, greasiness and tackiness. Numerical values are given as follows: poor = 0, average or "not sure" = 1, and good = 2. This is done by an experienced panel of 10 persons and ratings for each emollient are the mean for the 10 subjects. With this system, the highest possible rating is 10; the average emollient has a rating of 5; and the worst score is zero. Most of the emollients of the present invention have ratings well above 5.
Specific examples of acetals of fatty aldehydes are listed following under the name of the polyol. The aldehyde in each case was the mixed C13 and C15 aldehyde used in Example 1.

[1] = 0-10 scale, five characteristics (ease of application, moistness, smoothness, greasiness, tackiness) each rated 0-2, mean of 10 subjects, 7.0 parts emollient in lotion aged 48 hours, rubbed into inner arm

SMILES | Emollient Rating [1] | Emollient Rating (in vivo)
OCC(O)CO [Glycerol] | 5.8 | 
OCCO [Ethylene glycol] |  | 8.6
OCC(CO)(CO)CO [Pentaerythritol] | 6.3 | 
CC(O)CO (centres unmarked) [1,2-Propylene glycol] | 8.1 | 
OCCCO [1,3-Propanediol] | 6.3 | 
